Like-named read-outs stand apart in the source and are kept apart here.
Legend:
proteasome subunit β2 = biological target: T1, proteasome subunit β2 (Homo sapiens, UniProt Q99436); assay: In situ β2 proteasome activity assay (Ac-RLR-AMC) in RPMI 8226 cells; type: cell-based; conditions: 6 h, n = 3, Figure 4D
T1 sequence (Q99436 44-277): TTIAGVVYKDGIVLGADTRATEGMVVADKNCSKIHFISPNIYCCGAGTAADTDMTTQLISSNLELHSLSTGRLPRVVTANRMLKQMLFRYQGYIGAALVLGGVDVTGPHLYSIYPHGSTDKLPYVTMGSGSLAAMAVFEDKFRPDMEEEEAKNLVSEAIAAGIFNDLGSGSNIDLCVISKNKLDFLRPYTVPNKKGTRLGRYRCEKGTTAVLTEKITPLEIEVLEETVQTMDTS
Procedure: Cellular assays were performed on human multiple myeloma RPMI 8226 cells (Figure 4). First, relative inhibition of proteasome subunits β5 and β2 for all analogues and the natural product was measured at 30 nM compound concentration. Following incubation of the compounds in cell culture for 6 h, cells were lysed, and fluorogenic subunit-specific peptide substrates Suc-LLVY-AMC (β5) or Ac-RLR-AMC (β2) were incubated with the lysates; fluorescence readings provided relative proteasome activity levels in comparison with DMSO (Figure 4A). Next, cytotoxicity screening was performed at 30 and 100 nM concentrations for sufficient coverage of dynamic range (Figure 4B). […] Therefore, the improved cytotoxicity of phenyl cepafungin 50 likely results from a more pronounced loss of β5 function in RPMI 8226 cells. This drastic increase in proteasome inhibition may be due to π-stacking of the lipid tail phenyl ring with the β6 subunit residues Tyr106 and/or Tyr5. […]
Mammalian cells were maintained in RPMI-1640 media. […] Cells were lysed by needle sonication to obtain cell lysates and protein concentration was determined using the […]
(§1) fluorescence was read at A360ex/A460em. […]
in DMSO) or DMSO and cultured for 48 hours. Toxicity was determined using the WST-1 assay (Roche) according to the protocol of the manufacturer. […]

proteasome subunit β5 [1] = biological target: T2, proteasome subunit β5 (Homo sapiens, UniProt P28074); conditions: in situ in RPMI 8226 cells; preliminary analogue series, Figure 2; cited from earlier work
T2 construct: Following incubation of the compounds in cell culture for 6 h, cells were lysed; endogenous in cells; host or cells: RPMI 8226 (human multiple myeloma)

proteasome subunit β5 [2] = biological target: T2, proteasome subunit β5; assay: In situ β5 proteasome activity assay (Suc-LLVY-AMC) in RPMI 8226 cells; type: cell-based; conditions: RPMI 8226 cells
Excerpt: A preliminary series of analogues, including the natural product glidobactin A (2), were synthesized by largely the same route (Scheme 2B, Figure 2).[36] Desoxycepafungin (38) was synthesized from Boc-Lys(Boc)-OH by peptide couplings/macrocyclization to assess the role of the macrocycle hydroxylation in 1 toward proteasome inhibition. The saturated cepafungin analogue 39 was designed to address the possible role of rigidity in the tail fragment induced by the diene seen in many natural cepafungins and glidobactins. An analogue bearing unsaturation at its macrocyclic lysine was envisioned to provide a head-to-head comparison between the cepafungin and syringolin macrocyclic core. […] Proteasome subunit β5 IC50 values were determined in situ in RPMI 8226 cells. In close agreement with prior measurement of β5 IC50 for natural 1 and 2 in purified yeast proteasome,[12] in our hands the additional branching methyl in 1 indeed leads to ca. 5-fold improved IC50 compared to 2 in RPMI 8226 cells. […] Likewise, saturation of the fatty acid fragment in 39 causes ca. 14-fold decrease in β5 inhibition. This preliminary series of analogues highlighted that the macrocyclic hydroxylation, fatty acid unsaturation, and terminal lipid functionality are critical for potent proteasome inhibitory activity.
Cellular assays were performed on human multiple myeloma RPMI 8226 cells (Figure 4). First, relative inhibition of proteasome subunits β5 and β2 for all analogues and the natural product was measured at 30 nM compound concentration. Following incubation of the compounds in cell culture for 6 h, cells were lysed, and fluorogenic subunit-specific peptide substrates Suc-LLVY-AMC (β5) or Ac-RLR-AMC (β2) were incubated with the lysates; fluorescence readings provided relative proteasome activity levels in comparison with DMSO (Figure 4A). Next, cytotoxicity screening was performed at 30 and 100 nM concentrations for sufficient coverage of dynamic range (Figure 4B). […] Therefore, the improved cytotoxicity of phenyl cepafungin 50 likely results from a more pronounced loss of β5 function in RPMI 8226 cells. This drastic increase in proteasome inhibition may be due to π-stacking of the lipid tail phenyl ring with the β6 subunit residues Tyr106 and/or Tyr5. The β2 subunit-bound natural product has residues Tyr102 and Phe103 on the adjacent β3 subunit oriented further away from the terminal lipid methyl groups, and presumably would not facilitate π-stacking to the extent possible at the adjacent β6 subunit (see Figure 3 and Figure S4). […] These combined modifications were made in hopes that the effects of both substitutions would be additive. […] The presence of a Thr residue next to the cepafungin macrocycle appears to be favored over the ethyl side chain of desoxy-Thr analogue 44 as indicated by cytotoxicity and hydrogen-bonding seen in the cepafungin-bound crystal structure (Figures 3 and 4B). […]
Mammalian cell culture and lysate preparation
Mammalian cells were maintained in RPMI-1640 media. All media were supplemented with 10% fetal bovine serum (FBS, Life Technologies Cat# 10437028), non-essential amino acids (Sigma-Aldrich Cat# M7145) and penicillin/streptomycin (Sigma-Aldrich Cat# P4333). Cells were grown at 37 °C under 5% CO2 atmosphere. […] Cells were lysed by needle sonication to obtain cell lysates and protein concentration was determined using the […]
as §1

## CC(C)CCCCCC=CC=CC(=O)NC(C(=O)NC1CC(O)CCNC(=O)C=CC(C)NC1=O)C(C)O (centres unmarked) [compound 1, cepafungin I]
Proteasome subunit β2
  IC50: 43 nM
Proteasome subunit β5 [1]
  IC50: 16 ± 1 nM
Proteasome subunit β5 [2]
  fold improved β5 IC50 of 1 compared to 2: ca. 5 fold
  fold improved β5 inhibition of 1 compared to 38: ca. 11 fold
Proteasome subunit β5 [2]; 6 h, Suc-LLVY-AMC, n = 3, Figure 4D
  IC50: 28 nM
